In ChEMBL document CHEMBL1201862, “PubChem BioAssay data set” (2004):
Where “and” joins values, the source holds several entries; their conditions need not be identical. Equal entries are not always repeated.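 Protocol summary: plate cells (96-well), add compound at 5 concentrations, incubate 48 h, interpolate endpoints linearly. GI50: concentration for 50% inhibition of growth.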 Calls of active or inactive are those of the source. Cut-off read from the data, not from the text of the source: active = GI50 up to about 1.1 µM and inactive = higher.

Tests used:
Test in all cases: growth of human tumour cells (NCI), 48 h
[1] = test system: A549
[2] = test system: CAKI-1
[3] = test system: HCT-15
[4] = test system: HL-60
[5] = test system: HT-29
[6] = test system: K562
[7] = test system: MOLT-4
[8] = test system: NCI-H226
[9] = test system: SK-OV-3
[10] = test system: SN12C
[11] = test system: SNB-19
[12] = test system: SNB-75
[13] = test system: U-251
[14] = test system: UACC-62
[15] = test system: SR
[16] = test system: LOX IMVI

Compound	GI50 [1]	GI50 [2]	GI50 [3]	GI50 [4]	GI50 [5]	GI50 [6]	GI50 [7]	GI50 [8]	GI50 [9]	GI50 [10]	GI50 [11]	GI50 [12]	GI50 [13]	GI50 [14]	GI50 [15]	GI50 [16]
O=C(/C=C/c1ccccc1Cl)c1ccccc1Cl	30 µM (inactive)	17.6 µM (inactive)	14.8 µM	22.4 µM (inactive)	18.8 µM (inactive)	21 µM (inactive)	23.8 µM (inactive)	45.9 µM (inactive)	72.6 µM (inactive)	20.6 µM (inactive)	15.7 µM (inactive)	30.3 µM (inactive)	16.3 µM (inactive)	16.7 µM (inactive)		
O=C(/C=C1\Nc2ccccc2C(=O)N1c1ccc(Cl)cc1)c1ccncc1	> 100 µM (inactive)	> 100 µM (inactive)	> 100 µM	> 100 µM (inactive)	> 100 µM (inactive)	> 100 µM (inactive)	> 100 µM (inactive)	> 100 µM (inactive)	> 100 µM (inactive)	> 100 µM (inactive)	> 100 µM (inactive)	20.7 µM (inactive)	> 100 µM (inactive)	> 100 µM (inactive)	> 100 µM (inactive)	
O=C(c1ccccc1)C1CCCCN1C(=O)c1ccccc1 (stereo unspecified)	> 100 µM (inactive)	> 100 µM (inactive)	> 100 µM	> 100 µM (inactive)		> 100 µM (inactive)	> 100 µM (inactive)	> 100 µM (inactive)	> 100 µM (inactive)	> 100 µM (inactive)	> 100 µM (inactive)	> 100 µM (inactive)	> 100 µM (inactive)	25.7 µM (inactive)	> 100 µM (inactive)	
Cc1ccc(S(=O)(=O)ON=C2CC(c3ccccc3)N(C)C(c3ccccc3)C2)cc1 (stereo unspecified)	23.2 µM (inactive) and 20.6 µM (inactive)	24.6 µM (inactive) and 15.6 µM (inactive)	16.7 µM and 18.5 µM		20 µM (inactive) and 20.9 µM (inactive)		17.9 µM (inactive) and 20.6 µM (inactive)	28.7 µM (inactive) and 23.6 µM (inactive)	22.5 µM (inactive) and 21.8 µM (inactive)	23.6 µM (inactive)	25.8 µM (inactive) and 32.7 µM (inactive)	23.6 µM (inactive) and 26 µM (inactive)	23.3 µM (inactive) and 21.1 µM (inactive)	16.1 µM (inactive)	16.9 µM (inactive) and 21.5 µM (inactive)	13.5 µM (inactive) and 14 µM (inactive)
C=CCNC1=NC(=O)C(CC(=O)Nc2ccc([N+](=O)[O-])cc2[N+](=O)[O-])S1 (stereo unspecified)	> 100 µM (inactive)	83.8 µM (inactive)	> 100 µM	52.5 µM (inactive)	> 100 µM (inactive)		> 100 µM (inactive)	> 100 µM (inactive)	> 100 µM (inactive)	> 100 µM (inactive)	> 100 µM (inactive)	66.5 µM (inactive)	> 100 µM (inactive)	> 100 µM (inactive)		
CC[C@@]12N=C(N(C)C)C[C@]1(O)ON=C2C	> 100 µM (inactive)	> 100 µM (inactive)	> 100 µM	> 100 µM (inactive)	> 100 µM (inactive)	> 100 µM (inactive)	> 100 µM (inactive)	> 100 µM (inactive)	> 100 µM (inactive)	> 100 µM (inactive)	> 100 µM (inactive)	> 100 µM (inactive)	> 100 µM (inactive)		> 100 µM (inactive)	
CN(C)CCOc1cccc2c1C(=O)c1ccccc1C2=O	13.7 µM (inactive)	14.7 µM (inactive)	12.2 µM	12.1 µM (inactive)	6.37 µM (inactive)	11.1 µM (inactive)	3.45 µM (inactive)	9.95 µM (inactive)	20.4 µM (inactive)	9.06 µM (inactive)	18.2 µM (inactive)	14.9 µM (inactive)	17.4 µM (inactive)	16.3 µM (inactive)		5.75 µM (inactive)
O=C1c2ccccc2N2OC3C4CCC(C4)C3C12c1ccccc1 (stereo unspecified)	55.5 µM (inactive)		45.8 µM	33.5 µM (inactive)	61.4 µM (inactive)	47 µM (inactive)	32.1 µM (inactive)	> 100 µM (inactive)	> 100 µM (inactive)	86.9 µM (inactive)	> 100 µM (inactive)	> 100 µM (inactive)	86.5 µM (inactive)	93.8 µM (inactive)	44.1 µM (inactive)	
Cc1nc2ccccc2c(=O)n1/N=C(\N=N\c1ccccc1Cl)c1ccccc1	48.6 µM (inactive)	23.4 µM (inactive)	22.2 µM	15.3 µM (inactive)	25.6 µM (inactive)		> 10 µM (inactive)		31 µM (inactive)		74.1 µM (inactive)		26.7 µM (inactive)	17.5 µM (inactive)		24.8 µM (inactive)
CC(C)(C)OC(=O)N1N=NC2C3OC(CC3=O)C21 (stereo unspecified)	> 100 µM (inactive)	> 100 µM (inactive)	> 100 µM		> 100 µM (inactive)	> 100 µM (inactive)	> 100 µM (inactive)	2.8 µM (inactive)	18.6 µM (inactive)	> 100 µM (inactive)	> 100 µM (inactive)	> 100 µM (inactive)	> 100 µM (inactive)	> 100 µM (inactive)	77.4 µM (inactive)	> 100 µM (inactive)
CSc1ccc(C2OC(=O)c3ccccc32)c2ccccc12 (stereo unspecified)	81.3 µM (inactive)	80.7 µM (inactive)	97.7 µM	61.2 µM (inactive)	52.5 µM (inactive)	31 µM (inactive)	32.3 µM (inactive)		> 100 µM (inactive)	> 100 µM (inactive)	> 100 µM (inactive)	14.2 µM (inactive)	37.3 µM (inactive)	54.3 µM (inactive)	97.1 µM (inactive)	88.3 µM (inactive)
O=C1C2C=CC(C2)C(c2ccc(O)cc2)N1O (stereo unspecified)	> 100 µM (inactive)	> 100 µM (inactive)		> 100 µM (inactive)	> 100 µM (inactive)	> 100 µM (inactive)	> 100 µM (inactive)	> 100 µM (inactive)	> 100 µM (inactive)	> 100 µM (inactive)	> 100 µM (inactive)	> 100 µM (inactive)	> 100 µM (inactive)	> 100 µM (inactive)	> 100 µM (inactive)	
COC(=O)[C@@]12C3=NO[C@]1(C(=O)OC)C(O[Si](C)(C)C(C)(C)C)[C@H]1OC(C)(C)O[C@H]1[C@@H]2C(OCc1ccccc1)CC3 (stereo partly specified)	34 µM (inactive)		> 100 µM	6.49 µM (inactive)	67.3 µM (inactive)	> 100 µM (inactive)	9.66 µM (inactive)	88.7 µM (inactive)	25.6 µM (inactive)	89.7 µM (inactive)	25.8 µM (inactive)	17.9 µM (inactive)	43.5 µM (inactive)	41.7 µM (inactive)		69 µM (inactive)
Cn1cnc([N+](=O)[O-])c1Sc1nc2ccccc2s1	10.2 µM (inactive)	1.57 µM (inactive)	2.99 µM		13.3 µM (inactive)		1.89 µM (inactive)	9.84 µM (inactive)	15.5 µM (inactive)	4.33 µM (inactive)	14.5 µM (inactive)	15.6 µM (inactive)	11.7 µM (inactive)	11.9 µM (inactive)	3.48 µM (inactive)	15.3 µM (inactive)
